Reference: patent US10011631B2, “Stapled helical peptides and methods of synthesis” (The University of Hong Kong, priority 2015, dated 2018)

Target: MAGUK GK domain
Experiment: ITC binding to the MAGUK GK domain
Settings: from ITC studies

Ala-Arg-Arg-S5-Glu-Tyr-Leu-S5-Ala-Ile-Gln [compound 1]
binding affinity with the GK domain: no binding affinity
